Data as given in patent US20210038564A1, “METHODS FOR SCAR PREVENTION” (Northwestern University, priority 2009, published 2021).

Test system: hypertrophic scar formation
Assay: Hypertrophic scar model in rabbit ear, 7-mm wounds, scar elevation index
Format: in vivo, rabbit (New Zealand White)
Text: Using a well-established hypertrophic scar model in rabbit ear (Brown et al. (2008) Plast. Reconstr. Surg. 121:1165-1172; Kim et al. (2003) Wound Repair Regen. 11:368-372; Kryger et al. (2007) J Am. Coll. Surg. 205:78-88; Lu et al. (2005) J Am. Coll. Surg. 201:391-397; Morris et al. (2007) Plast. Reconstr. Surg. 100:674-681; Reid et al. (2006) Wound Repair Regen. 14:138-141; Reid et al. (2007) J Plast. Reconstr. Aesthet. Surg. 60:64-72; Saulis et al. (2002) Plast. Reconstr. Surg. 110:177-183; each herein incorporated by reference in its entirety), the effects of local administration of statins (e.g., Simvastatin, Lovastatin, Prevastatin) were investigated in experiments conducted during the course of developing some embodiments of the present technology. […] The effectiveness of statin administration on inhibition of hypertrophic scar formation was assessed by histological determination of scar elevation index (FIG. 1). The scar elevation index is determined by the ratio of total wound area tissue height to the area of normal tissue below the hypertrophic scar. […]
Whereas the dosages in terms of μMol were equivalent for all 3 statins, the μg dosage levels for Lovastatin and Prevastatin were double those used for Simvastatin. Scar Elevation Index was determined for 28 rabbits, as indicated: […]

Structure (SMILES): CC[C@H](C)C(=O)O[C@H]1C[C@@H](C)C=C2C=C[C@H](C)[C@H](CC[C@@H]3C[C@@H](O)CC(=O)O3)[C@H]21 [Lovastatin]
- hypertrophic scar formation (40 μM per wound, local injection): inhibit hypertrophic scar formation
- scar elevation index (SEI) (lowest level of drug administered (40 μM per wound), injections on days 15, 20, 25, harvest on day 35, versus vehicle): significantly lower SEI
